In PubChem BioAssay AID624285 (Broad Institute, 2012) one finds activity change, negative = cytotoxicity data, which are given here for 34 molecules.

Activity calls are given as the source filed them.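 Rule for the calls: active = signal-decreasing dose-response curve whose fitted half-maximal concentration is at or below twice the highest valid tested dose; inconclusive = flat fit at 30 to 70% signal loss, or poor fit; inactive = the rest.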

The assay can be described thus: cell viability loss after compound exposure – 24 h, luminescence, cherry-picked samples, cytotoxicity control for PDI inhibitor project, dose response (AID 624285). The note with it: NIH3T3/HeLa viability, CellTiter-Glo ATP luminescence, 24 h; at 35 µM (top of the series). In general terms: Cellular ATP, detected with luciferase, serves as a proxy for viable cell number.

On to `CCOc1ncccc1C(=O)OCC(=O)Nc1ccc(C(C)C)cc1`, for which the activity change, negative = cytotoxicity was -7.86% (inactive).

Take `C[C@@H]1CN([C@H](C)CO)C(=O)c2cc(NC(=O)Cc3cn(C)c4ccccc34)ccc2O[C@@H]1CN(C)S(=O)(=O)c1ccc(F)cc1`: the activity change, negative = cytotoxicity was -8.29% (inactive). The result for `Cc1noc(C)c1S(=O)(=O)Nc1ccc2c(c1)CC(=O)N([C@H](C)CO)C[C@H](C)[C@H](CN(C)S(=O)(=O)c1ccccc1)O2` reads 3.77% (inactive). Next, `CCOc1ccc(/C=N/OC(C)C(=O)NCc2ccc3c(c2)OCO3)cc1` (centres undefined): -5.51% (inactive); `O=C(NC1CCCCC1)C1CCN(S(=O)(=O)c2cccs2)CC1`: -7.67% (inactive). Next, `CCCCNC(=O)N1CCN(C(=O)C2CCCO2)CC1` (centres undefined): -4.25% (inactive).

With `O=C1[C@@H]2C(Cc3ccc(O)cc3)NC3(C(=O)Nc4ccc(F)cc43)[C@@H]2C(=O)N1c1ccccc1` (some centres undefined), the activity change, negative = cytotoxicity was -14% (inactive). Next, `CC(=O)c1ccc(OCc2cc(C(=O)N3CCCCC3c3cccnc3)no2)cc1` (centres undefined): -6.2% (inactive); `N#Cc1c(NCCCO)nc(-c2ccco2)c2c1CCCC2`: -19.8% (inactive); `CC(=O)C1=C(O)C(=O)N(CCc2c[nH]c3ccccc23)C1c1cccc(O)c1` (centres undefined): -10.4% (inactive). The result for `CCS(=O)(=O)c1ccc2oc(SCC(=O)NC(C)C3CC4CCC3C4)nc2c1` (centres undefined) reads -13.9% (inactive).

With `Cc1ccc2nc(N3CCN(Cc4nnnn4C4CCCC4)CC3)c(C#N)cc2c1`, the activity change, negative = cytotoxicity was -9.95% (inactive). The result for `CCOc1ccc2nc(SCC(=O)c3ccc(Cl)s3)sc2c1` reads -9.42% (inactive); that for `COc1cccc(/C=N/NC(=O)CNC(=O)c2ccc3c(c2)OCCO3)c1O`, -12.5% (inactive); that for `Cc1ccc(-c2cc(C(=O)NNC(=O)c3csc(N4CCOCC4)n3)c3ccccc3n2)cc1`, -13.2% (inactive). For `COc1ccc(CCNC(=O)c2cc(S(=O)(=O)N(C)C)ccc2N2CCCC2)cc1`, the activity change, negative = cytotoxicity was -14.6% (inactive). The result for `CCCCNC(=O)Nc1ccon1` reads -6.29% (inactive); that for `CC(Cc1ccccc1Sc1ccccc1O)N(C)C` (centres undefined), -11.9% (inactive); that for `CC(Cc1ccc(O)cc1)NCC(O)c1ccc(O)c(O)c1` (centres undefined), -7.22% (inactive).

As to `CCN1C(=O)C2C(c3ccccc3F)NC(Cc3ccc(O)cc3)(C(=O)OC)C2C1=O` (centres undefined), the activity change, negative = cytotoxicity is -13.9% (inactive). Next, `Cc1cc(C)cc(OCC(=O)Nc2ccccc2C(=O)N2CCOCC2)c1`: -11.8% (inactive). The result for `COCC(=O)N(C)C1(c2nnnn2CCOC(=O)Nc2ccc(Cl)cc2)CCCC1` reads -5.83% (inactive); that for `COc1cc2c(cc1OC)C1C(C(=O)Nc3ccccc3N3CCN(C)CC3)c3ccccc3C(=O)N1CC2` (centres undefined), -11.8% (inactive); that for `O=C(O)C1C(c2ccccc2)C(C(=O)Oc2ccc(O)cc2)C1c1ccccc1` (centres undefined), -8.75% (inactive). For the molecule `C[C@@H](C(=O)NCc1ccccc1)N1C(=O)C2CC=CCC2C1=O` (some centres undefined), the activity change, negative = cytotoxicity is -8.35% (inactive).

As for `COc1ccccc1NS(=O)(=O)c1cccc(C(=O)NCC2(N(C)C)CCCCC2)c1`, the activity change, negative = cytotoxicity was -8.59% (inactive).

Turning to `CN1CCN(C(=O)CSc2nnc(COc3ccc(Cl)cc3)o2)CC1`, the activity change, negative = cytotoxicity is -3.96% (inactive).

With `CC[C@]12c3[nH]c4cc(-c5ccco5)ccc4c3CCN1C(=O)[C@@H](CC(=O)NCCCOC)C[C@@H]2C(=O)N1CCN(C(=O)C2CC2)CC1`, the activity change, negative = cytotoxicity was -8.63% (inactive). Next, `FC(F)(F)c1cccc(NC(=S)NCc2ccccn2)c1`: -2.29% (inactive); `CC(C)Cn1c(N)c(C(=O)COC(=O)c2ccc(O)cc2)c(=O)n(C)c1=O`: -14.4% (inactive). On to `COc1cc(-c2oc3cc(O)cc(O)c3c(=O)c2O[C@@H]2O[C@H](COC3O[C@@H](C)[C@H](O)[C@@H](O)[C@H]3O)[C@@H](O)[C@H](O)[C@H]2O)ccc1O` (some centres undefined), for which the activity change, negative = cytotoxicity is -2.55% (inactive). `Cc1nc(C(=O)Nc2cccc(Cl)c2Cl)nn1-c1cc(OC(C)C)c(Cl)cc1Cl`: the activity change, negative = cytotoxicity is -11.1% (inactive). Next, `CCOC(=O)c1oc2cccc(O)c2c1CN(Cc1ccccc1)C(C)=O`: -17.2% (inactive); `O=C1C[C@H](c2ccc(O)cc2)Oc2cc(O[C@@H]3O[C@H](CO)[C@@H](O)[C@H](O)[C@H]3O)cc(O[C@@H]3O[C@H](CO)[C@@H](O)[C@H](O)[C@H]3O)c21`: -8.86% (inactive).
